Experiments:
Type in all cases: in vivo
[1] = system: Colla2^oim mouse model of type 1(+/−) OI; assay: 4-point bend to failure of the fractured femurs, 12 week old type 1 OI mice; conditions: for increase in max load it takes a bone to fracture as compared to control: fractured femurs, daily subcutaneously 38 nmol/kg/d for 5 weeks, Type 1 OI mice treated (FIG. 18)
Experimental: (§1) FIGS. 13 and 14 show the impact of treatment with Compound 1 on bone fracture stiffness in a Colla2^oim mouse model of type 3(−/−) and type 1(−/+) osteogenesis Imperfecta. After reaching skeletal maturity, 12 weeks old female mice underwent a stabilized midshaft femur fracture model via an osteotomy and type 1 and Type 3 OI mice were treated twice a week for 5 and 6 weeks respectively post fracture. Fracture strength was evaluated via 4-point bend to failure of the fractured femurs. Modulus evaluates the stiffness of the femur during the biomechanical evaluation. A low stiffness is indicative of brittleness that leads to leads to future fractures. The improvement in stiffness that occurred in the fracture callus are indicative of a healthier bone that is less brittle and will be less likely to fracture in the future. In some instances, low bone stiffness is indicative of brittleness in the bone, such as being associated with higher risk of fracture. In some instances, higher bone stiffness is indicative of healthier bone, such as bone that is less brittle and less prone to fracture. In some instances, the majority of the compound localized into the fracture callus (e.g., due to the large amounts of exposed hydroxyapatite at the fracture site and that DE20 can bind to hydroxyapatite via chelation of the calcium component). In some instances, the elevated sites of resorption throughout the OI type 3 skeleton also had some moderate accumulation (e.g., which was responsible for the non-fracture skeletal improvements observed in FIGS. 13 and 14).
After reaching skeletal maturity, 12 weeks old female mice underwent a stabilized midshaft femur fracture model via an osteotomy. Type 1 and Type 3 OI mice were treated twice a week for 5 weeks and 6 weeks respectively post fracture. Fracture strength was evaluated via 4-point bend to failure of the fractured femurs. The contralateral untreated femurs are presented here to show the restoration to previous non-fracture strength during treatment. […] Further, Compound 1 increases the max load (in Newtons) it takes a bone to fracture in mice with Type 1 OI by approximately 70% (as compared to bone with saline). […]

[2] = system: Colla2^oim mouse model of type 1(+/−) OI; assay: 4-point bend to failure of the non-fractured contralateral femurs, type 1 OI mice
Experimental: FIGS. 11 and 12 show the impact of treatment with Compound 1 on bone strength in a Colla2^0im mouse model of type!(+/−) OI. 12 week old female mice underwent a stabilized midshaft femur fracture model via an osteotomy. Type 1 OI mice were treated twice a week for 5 weeks post fracture. Bone strength was evaluated via 4-point bend to failure of the non-fractured contralateral femurs. The max load (FIG. 11) evaluates the max load the femur withstood prior to fracture in the biomechanical evaluation. Work to fracture (FIG. 12) evaluates the total amount of energy the femur adsorbed prior to fracture in the biomechanical evaluation. Bone targeted anabolic treatment dramatically improves bone strength in the contralateral femurs.
FIGS. 19 and 20 show the impact of treatment with Compound 3 on bone strength in a Colla2^oim mouse model of type 1(+/−) OI. 12 week old female mice underwent a stabilized midshaft femur fracture model via an osteotomy. Type 1 OI mice were treated daily subcutaneously for 5 weeks post fracture. Bone strength was evaluated via 4-point bend to failure of the non-fractured contralateral femurs. The max load (FIG. 19) evaluates the max load the femur withstood prior to fracture in the biomechanical evaluation. Work to fracture (FIG. 20) evaluates the total amount of energy the femur adsorbed prior to fracture in the biomechanical evaluation. Bone targeted anabolic treatment dramatically improves bone strength in the contralateral femurs.

[3] = system: Colla2^oim mouse model of type 1(+/−) OI; assay: Fracture callus mineralization by MicroCT after stabilized midshaft femur fracture (osteotomy), type 1 OI mice
Experimental: (§2) After reaching skeletal maturity, 12 weeks old female mice underwent a stabilized midshaft femur fracture model via an osteotomy. Type 1 and Type 3 OI mice were treated twice a week for 5 weeks and 6 weeks respectively post fracture. Fracture callus mineralization was evaluated via quantification of high resolution MicroCT(scanco) images of the fracture callus.
After reaching skeletal maturity, 12 weeks old mice underwent a stabilized midshaft femur fracture model via an osteotomy. Type 1 OI mice were treated daily subcutaneously for 5 weeks post fracture. Fracture callus mineralization was evaluated via quantification of high resolution MicroCT(scanco) images of the fracture callus. In some instances, mice were dosed (daily) with 38 nmol/kg/d of Compound 4, Compound 3, or PBS vehicle control.
as §2, with “maturity” for “maturity,”, “old” for “old female”, “1” for “1 and Type 3”, “daily subcutaneously” for “twice a week”, “weeks” for “weeks and 6 weeks respectively”
(§3) In vivo experiments were conducted in heterozygous and homozygous Colla2^oim (Type 1 OI (+/−) and Type 3 OI (−/−)) mice of both genders. After reaching skeletal maturity, 12 weeks old female and/or male mice underwent a stabilized midshaft femur fracture model via an osteotomy. OI mice were subcutaneously treated (with saline control or a compound provided herein, such as Ab46-D-Glu20) twice a week 5 or 6 weeks post fracture. Following a 5-week study in heterozygous mice and 6-week in homozygous mice, fracture callus mineralization/densities were measured using quantification of high resolution MicroCT(scanco) images of the fracture callus.

[4] = system: Colla2^oim mouse model of type 3(−/−) OI; assay: 4-point bend to failure of the fractured femurs, type 3 OI mice
Experimental: (§4) After reaching skeletal maturity, 12 weeks old female mice underwent a stabilized midshaft femur fracture model via an osteotomy. Type 3 OI mice were treated twice a week for 6 weeks post fracture. Fracture strength was evaluated via 4-point bend to failure of the fractured femurs. The max load evaluates the max load the femur withstood prior to fracture in the biomechanical evaluation. The contralateral untreated femurs are presented here to show the restoration to previous non-fracture strength during treatment.
as §4, with “Work to fracture” for “The max load”, “total amount of energy” for “max load”, “adsorbed” for “withstood”
as §1
After reaching skeletal maturity, 12 weeks old female mice underwent a stabilized midshaft femur fracture model via an osteotomy. Type 1 and Type 3 OI mice were treated twice a week for 5 weeks and 6 weeks respectively post fracture. Fracture strength was evaluated via 4-point bend to failure of the fractured femurs. The contralateral untreated femurs are presented here to show the restoration to previous non-fracture strength during treatment. […] Further, Compound 1 increases the max load (in Newtons) it takes a bone to fracture in mice with Type 1 OI by approximately 70% (as compared to bone with saline).

[5] = system: Colla2^oim mouse model of type 1(+/−) OI; assay: 4-point bend to failure of the fractured femurs, 6 week old pediatric type 1 OI mice; conditions: 6 week old pediatric mice
Experimental: In some instances, OI affects children from birth and many of the fractures in an individual's life with OI occurring during adolescence. In some embodiments, the individual has pediatric OI. FIGS. 7 and 8 show the impact of treatment with Compound 1 on bone fracture strength in a Colla2^oim mouse model of type 1(+/−) OI. 6 week old pediatric Mice underwent a stabilized midshaft femur fracture model via an osteotomy. Type 1 OI mice were treated twice a week for 4 weeks post fracture. Fracture strength was evaluated via 4-point bend to failure of the fractured femurs. The max load (FIG. 7) evaluates the max load the femur withstood prior to fracture in the biomechanical evaluation. Work to fracture (FIG. 8) evaluates the total amount of energy the femur adsorbed prior to fracture in the biomechanical evaluation.

[6] = system: Colla2^oim mouse model of type 3(−/−) OI; assay: Fracture callus mineralization by MicroCT after stabilized midshaft femur fracture (osteotomy), type 3 OI mice
Experimental: In some instances, ability of an anabolic linked to a hydroxyapatite ligand to accelerate the repair of fractures in a Type 3 OI disease state was analyzed. Type 3 is the most severe non-lethal form of OI and experiences the most fractures in the human population. In some instances, Type 3 was modeled in a Colla2oim (−/−) mouse (e.g., which is a well-established model of OI Type 3), such as described elsewhere herein (e.g., see the examples). In some instances, the compound is distally administered and accumulates locally at a fracture site.
as §2, with “Type” for “Type 1 and Type”, “week” for “week for 5 weeks and”, “weeks” for “weeks respectively”
as §2, §3

[7] = 12 weeks old mice, daily subcutaneously 38 nmol/kg/d for 5 weeks (FIG. 17)

AVSEHQLLHDKGKSIQDLIUGTFFLHHLIAEIHTAEnLATSEVSPNSeeeeeeeeeeeeeeeeeeee [Compound 3]
increase in max load it takes a bone to fracture as compared to control [1]: approximately 100% | more max load to fracture than bone in control mice ([2]; contralateral femurs, daily subcutaneously 5 weeks (FIG. 19)): approximately 10% | higher work to fracture, non-fractured bone vs control mice ([2]; non-fractured contralateral femurs, daily subcutaneously 5 weeks (FIG. 20)): approximately 40% | improved fracture callus mineralization as compared to the saline control [3, 7]: approximately 300%

AVSEHQLLHDKGKSIQDLRRRELLEKLLxKLHTAEIRATSEVSPNSeeeeeeeeeeeeeeeeeeee [Compound 1]
more max load to fracture than fractured bone in control mice ([1]; Type 1 OI, 12 week old female mice, twice a week 5 weeks (FIG. 10)): 80% | more max load to fracture than fractured bone in control mice ([1]; Type 1 OI, 12 week old male mice, twice a week 5 weeks (FIG. 9)): approximately 70% | increase in max load it takes a bone to fracture as compared to bone with saline ([1]; Type 1 OI, 12 weeks old female mice, twice a week 5 weeks (FIG. 5)): approximately 70% | more stiff (modulus) than fractured bone of control mice ([1]; Type 1 OI, fractured bone, twice a week 5 weeks (FIG. 14)): approximately 60% | differential response between sexes (fracture strength) ([1]; Type 1 OI, male vs female mice, twice a week 5 weeks (FIGS. 9, 10)): No differential response between sexes | more stiff (modulus) than unfractured bone of control mice ([1]; Type 1 OI, treated fractured bone vs unfractured control bone (FIG. 14)): approximately 10% | force required to refracture bone ([4]; Colla2oim mouse model, mechanical testing): dramatically higher force | more stiff (modulus) than fractured bone of control mice ([4]; Type 3 OI, fractured bone, twice a week 6 weeks (FIG. 13)): approximately 100% | increase in max load it takes a bone to fracture as compared to saline bone ([4]; Type 3 OI, fractured femur, twice a week 6 weeks (FIG. 2, FIG. 5)): approximately 300% | increase in work to fracture as compared to bone repaired with saline ([4]; Type 3 OI, fractured femur, twice a week 6 weeks (FIG. 3)): approximately 150% | more stiff (modulus) than non-fractured bone of control mice ([4]; Type 3 OI, treated fractured bone vs non-fractured control bone (FIG. 13)): approximately 50% | increase in work to fracture as compared to non-fractured bone ([4]; Type 3 OI, treated fractured femur vs non-fractured bone (FIG. 3)): approximately 70% | more max load to fracture, non-fractured bone vs control mice ([2]; non-fractured contralateral femurs, twice a week 5 weeks (FIG. 11)): approximately 30% | higher work to fracture, non-fractured bone vs control mice ([2]; non-fractured contralateral femurs, twice a week 5 weeks (FIG. 12)): approximately 40% | higher max load to fracture than saline control ([5]; twice a week 4 weeks (FIG. 7)): approximately 160% | higher work to fracture than saline control ([5]; twice a week 4 weeks (FIG. 8)): approximately 80% | improved fracture callus mineralization as compared to the saline control ([3]; 12 weeks old female mice, treated twice a week 5 weeks post fracture (FIG. 4)): approximately 50% | radiographic healing over the control ([6]; Colla2oim mouse model): significant improvement | improved fracture callus mineralization as compared to the saline control ([6]; Type 3 OI, 12 weeks old female mice, treated twice a week 6 weeks post fracture (FIG. 1, FIG. 4)): approximately 100% | median microCT images of fractured bones vs saline control ([6]; fractured bones of FIGS. 4 and 5 (Type 1 and Type 3 OI), composite of 20 microCT slices (FIG. 6)): healthier and denser bone | increase in bone volume fraction over the saline groups ([6]; mice administered compound vs saline groups): > 85%

eeeeeeeeee(AEEA)4 DLTIDDSYWYRI (EEEEEEEEEEXDLTIDDSYWYRI; D-Glu targeting ligand, 4 AEEA spacer; SITE 1..10 D-glutamic acid; SITE 11 2,2-amino ethoxy ethoxy acetic acid; REPEAT 11 repeated 4 times) [Compound 4, Ln2_P3 motif with N-terminally-attached 4-mini-PEG spacer and D-glutamic acid targeting ligand]
increase in max load it takes a bone to fracture as compared to control [1]: approximately 200% | improved fracture callus mineralization as compared to the saline control [3, 7]: approximately 200%
